# Several values for one entry are separate records, joined by “and”; a condition that tells them apart may be missing. Equal entries are not always repeated. Marks after values point to notes of the source that are not given here. Numbered stars: 1 amine (or outer) side, 2 acyl side, 3 side chain; on linkers, the order of the positions; unused ones are H or OH. Bridge positions count the residues as written; N and C are the ends. Square brackets hold non-standard residues; d marks the D form. Peptide text beside a SMILES is read from it. * marks the point of attachment. Leu(3R-OH,Nα-propionyl) = CCC(=O)N[C@H](C(=O)*)[C@H](O)C(C)C; X1 = CC(C)[C@@H](O[*:3])[C@H](N[*:1])C(=O)[*:2]; NMeT = CN[C@H](C(=O)O)[C@@H](C)O; dPhLac = O=C(O)[C@H](O)Cc1ccccc1; NMeA = CN[C@@H](C)C(=O)O; NMeDha = C=C(NC)C(=O)O
# Columns and labels:
# murine NPSR [1] = target: T1, murine NPSR (Mus musculus, UniProt Q8BZP8); experiment: Dynamic mass redistribution (DMR) assay in HEK293mNPSR cells; assay type: cell-based; settings: for DMR response, HEK293mNPSR pm ± SEM: peak at 60 minute, mean ± SEM, duplicate
# T1 construct: expressed in transfected cells
# T1 sequence (Q8BZP8 1-371): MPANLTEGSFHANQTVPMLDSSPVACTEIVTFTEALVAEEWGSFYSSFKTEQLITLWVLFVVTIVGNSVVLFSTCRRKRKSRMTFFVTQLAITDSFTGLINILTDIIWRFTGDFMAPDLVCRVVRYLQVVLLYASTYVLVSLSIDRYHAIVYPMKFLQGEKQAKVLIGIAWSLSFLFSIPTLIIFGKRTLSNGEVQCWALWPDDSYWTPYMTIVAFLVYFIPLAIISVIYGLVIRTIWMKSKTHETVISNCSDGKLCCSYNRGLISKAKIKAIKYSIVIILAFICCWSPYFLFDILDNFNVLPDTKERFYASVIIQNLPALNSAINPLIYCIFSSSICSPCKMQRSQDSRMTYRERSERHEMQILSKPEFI
# Method: (§1) HEK293 cells stably expressing the murine NPSR receptor (HEK293mNPSR) were described previously.3 Wild‐type HEK293 cells were used as a control. Cells were maintained in Dulbecco's Medium (DMEM) supplemented with 10% fetal bovine serum, 100 U/mL penicillin, 100 μg/mL streptomycin and, 2 mmol L^−1 L‐glutamine. The medium was complemented with 100 mg/L hygromycin for HEK293mNPSR. Cells were cultured at 37°C in 5% CO2 humidified air.
# Confluent cells were subcultured using trypsin/EDTA and used for experiments. […] On the day of the experiment, cells were manually washed twice and maintained with assay buffer for 90 minutes before DMR experiments. DMR was monitored in real time with a temporal resolution of 22 seconds throughout the assay. Experiments were performed at 37°C, using an EnSight Multimode Plate Reader (PerkinElmer), that uses the Corning® Epic® Technology to measure the DMR signal. Agonism protocol: a 5‐minute baseline was first established, followed by adding compounds manually in a volume of 10 μL and recording compounds‐triggered DMR signal for 60 minute. Antagonism protocol: antagonists were added manually 25 minute before reading the 5‐minute baseline. After baseline establishment, NPS was injected and DMR signal was recorded for 60 minute. Antagonist properties of ligands were measured by assessing the concentration‐response curve to NPS in the absence and in presence of a fixed concentration of compound. FR900359 was added 60 minute before NPS, rolipram was incubated for 90 minute before NPS, while PTX was added 24 hours before NPS. Maximum picometer (pm) modifications (peak measured at 60 minute time point) were used to determine agonist response after baseline normalization.
# All data were analyzed using Graph Pad Prism 6.0 (La Jolla, CA, USA). Concentration‐response curves were fitted using the four parameters log logistic equation. Data are expressed as mean ± SEM of n experiments performed in duplicate and were analyzed using one‐ or two‐way analysis of variance (ANOVA) followed by Dunnett's or Tukey's test for multiple comparisons wherever appropriate. […] Antagonists potencies were assayed at single concentrations against the concentration‐response curve to NPS and their pA2 was derived using the following equation: pA2 = log(CR − 1) − log[A], where CR is the ratio between agonist potency (EC50) in the presence and in absence of antagonist and [A] is the molar concentration of antagonist.
# murine NPSR [2] = target: T1, murine NPSR; experiment: Calcium mobilization assay in HEK293mNPSR cells; assay type: cell-based; settings: FR900359 injected 24 minute before NPS, Fluo-4 AM, FlexStation II, 37°C
# Method: Cells were seeded at a density of 50 000 cells/well in 100 μL into poly‐D‐lysine coated 96‐well black, clear‐bottom plates. The following day, cells were incubated with medium supplemented with 2.5 mmol L^−1 probenecid, 3 μmol L^−1 of the calcium sensitive fluorescent dye Fluo‐4 AM and 0.01% pluronic acid, for 30 minute at 37°C. Following this, the loading solution was aspirated and 100 μL of HBSS supplemented with 20 mmol L^−1 HEPES, 2.5 mmol L^−1 probenecid and 500 μmol L^−1 Brilliant Black were added. Cell culture and drug plates were placed into a fluorimetric imaging plate reader (FlexStation II, Molecular Devices, Sunnyvale, CA) and fluorescent changes were measured. On‐line additions were carried out in a volume of 50 μL/well. To facilitate drug diffusion into the wells, the present studies were performed at 37°C and three cycles of mixing (25 μL from each well moved up and down three times) were performed immediately after FR900359 injection to the wells. FR900359 was injected into the wells 24 minute before adding NPS.
# All data were analyzed using Graph Pad Prism 6.0 (La Jolla, CA, USA). […] Data are expressed as mean ± SEM of n experiments performed in duplicate and were analyzed using one‐ or two‐way analysis of variance (ANOVA) followed by Dunnett's or Tukey's test for multiple comparisons wherever appropriate. […]
# HEK293mNPSR cells = experiment: DMR response to NECA with and without rolipram in HEK293mNPSR cells; assay type: cell-based; settings: NECA 10 μmol L^−1 + rolipram 10 μmol L^−1 (90 minute before), P < 0.05 vs NECA alone
# Method: Confluent cells were subcultured using trypsin/EDTA and used for experiments. Cells were seeded at a density of 20 000 cells/well in 30 μL into fibronectin‐coated Enspire™‐LC 384‐wells plates and cultured for 20 hours to form a confluent monolayer. On the day of the experiment, cells were manually washed twice and maintained with assay buffer for 90 minutes before DMR experiments. DMR was monitored in real time with a temporal resolution of 22 seconds throughout the assay. Experiments were performed at 37°C, using an EnSight Multimode Plate Reader (PerkinElmer), that uses the Corning® Epic® Technology to measure the DMR signal. Agonism protocol: a 5‐minute baseline was first established, followed by adding compounds manually in a volume of 10 μL and recording compounds‐triggered DMR signal for 60 minute. Antagonism protocol: antagonists were added manually 25 minute before reading the 5‐minute baseline. After baseline establishment, NPS was injected and DMR signal was recorded for 60 minute. Antagonist properties of ligands were measured by assessing the concentration‐response curve to NPS in the absence and in presence of a fixed concentration of compound. […] Maximum picometer (pm) modifications (peak measured at 60 minute time point) were used to determine agonist response after baseline normalization. […]
# wild-type HEK293 cells = experiment: DMR assay in wild-type HEK293 cells (control); assay type: cell-based, Human; settings: ligand 10 μmol L^−1, 37°C, peak at 60 minute after baseline normalization, mean ± SEM, duplicate
# Method: as §1
# Confluent cells were subcultured using trypsin/EDTA and used for experiments. Cells were seeded at a density of 20 000 cells/well in 30 μL into fibronectin‐coated Enspire™‐LC 384‐wells plates and cultured for 20 hours to form a confluent monolayer. On the day of the experiment, cells were manually washed twice and maintained with assay buffer for 90 minutes before DMR experiments. DMR was monitored in real time with a temporal resolution of 22 seconds throughout the assay. Experiments were performed at 37°C, using an EnSight Multimode Plate Reader (PerkinElmer), that uses the Corning® Epic® Technology to measure the DMR signal. Agonism protocol: a 5‐minute baseline was first established, followed by adding compounds manually in a volume of 10 μL and recording compounds‐triggered DMR signal for 60 minute. Antagonism protocol: antagonists were added manually 25 minute before reading the 5‐minute baseline. After baseline establishment, NPS was injected and DMR signal was recorded for 60 minute. Antagonist properties of ligands were measured by assessing the concentration‐response curve to NPS in the absence and in presence of a fixed concentration of compound. FR900359 was added 60 minute before NPS, rolipram was incubated for 90 minute before NPS, while PTX was added 24 hours before NPS. Maximum picometer (pm) modifications (peak measured at 60 minute time point) were used to determine agonist response after baseline normalization.
# All data were analyzed using Graph Pad Prism 6.0 (La Jolla, CA, USA). Concentration‐response curves were fitted using the four parameters log logistic equation. Data are expressed as mean ± SEM of n experiments performed in duplicate and were analyzed using one‐ or two‐way analysis of variance (ANOVA) followed by Dunnett's or Tukey's test for multiple comparisons wherever appropriate. Agonist potency was expressed as pEC50, which is the negative logarithm to base 10 of the agonist molar concentration that produces 50% of the maximal possible effect of that agonist. Antagonists potencies were assayed at single concentrations against the concentration‐response curve to NPS and their pA2 was derived using the following equation: pA2 = log(CR − 1) − log[A], where CR is the ratio between agonist potency (EC50) in the presence and in absence of antagonist and [A] is the molar concentration of antagonist.
# NPSR = settings: cited from earlier work
# Source text: The pharmacological profile of NPSR in the DMR assay has been investigated using several NPSR ligands acting as full and partial agonists and pure antagonists in the calcium mobilization assay. The DMR effects of these compounds solely derive from their capability to activate NPSR since we selected their concentration range based on lack of DMR signal in wild‐type cells. Overall, the DMR pharmacological profile of NPSR looks similar but not identical to that reported in literature using the calcium mobilization assay. The first aspect that deserves attention is related to the efficacy of NPSR ... || Regarding NPSR agonists, another point that must be addressed is the pharmacological behavior of PWT1‐NPS. […] The high in vitro potency of PWT1‐NPS was associated with a high in vivo potency and long‐lasting duration of action.31 These features seem to be common to PWT derivatives of other neuropeptides including nociceptin/orphanin FQ, opioids and tachykinins (reviewed in 40). In DMR experiments, we were not able to fully investigate the pharmacologic ...
compound,measurement,setting,value
"C=C1C(=O)N[C@@H](C)C(=O)N(C)[C@@H](C)C(=O)N[C@@H]([C@H](OC(=O)[C@@H](NC(=O)CC)[C@H](O)C(C)C)C(C)C)C(=O)N(C)[C@@H]([C@@H](C)OC)C(=O)O[C@H](C(C)C)[C@H](NC(C)=O)C(=O)O[C@H](Cc2ccccc2)C(=O)N1C [FR900359, [(1R)‐1‐[(3S,6S,9S,12S,18R,21S,22R)‐21‐acetamido‐18‐benzyl‐3‐[(1R)‐1‐methoxyethyl]‐4,9,10,12,16‐pentamethyl‐15‐methylidene‐2,5,8,11,14,17,20‐heptaoxo‐22‐propan‐2‐yl‐1,19‐dioxa‐4,7,10,13,16‐pentazacyclodocos‐6‐yl]‐2‐methylpropyl] (2S,3R)‐3‐hydroxy‐4‐methyl‐2‐(propanoylamino)pentanoate, reference compound] (Ac-[X1][dPhLac][NMeDha]A[NMeA][X1](Leu(3R-OH,Nα-propionyl))[NMeT](Me); ester 1-C)",Effect of inhibitor on NPS-evoked DMR response,"murine NPSR [1]; FR900359 1 μmol L^−1 (60 minute before NPS), PTX 100 ng mL^−1 (24 hours before), rolipram 10 μmol L^−1 (90 minute before)","strongly, but not completely, reduced NPS effects"
same,Effect of inhibitor on NPS stimulated calcium mobilization,murine NPSR [2],completely abolished
"CCNC(=O)[C@H]1O[C@@H](n2cnc3c(N)ncnc32)[C@H](O)[C@@H]1O [NECA, (2S,3S,4R,5R)‐5‐(6‐aminopurin‐9‐yl)‐N‐ethyl‐3,4‐dihydroxyoxolane‐2‐carboxamide, reference compound]",DMR response of NECA in presence of rolipram,HEK293mNPSR cells,464 ± 58 pm
same,"DMR response, HEK293mNPSR pm ± SEM","murine NPSR [1]; ligand 10 μmol L^−1, 37°C",229 ± 18 pm and 229 ± 18 ^a pm
same,"DMR response, HEK293 pm ± SEM",wild-type HEK293 cells,312 ± 28 ^a pm
[D‐Cys(^tBu)^5]NPS,"DMR response, HEK293mNPSR pm ± SEM","murine NPSR [1]; ligand 1 μmol L^−1, 37°C",387 ± 43 pm and 387 ± 43 ^a pm
same,DMR response as % of NPS maximal effect,murine NPSR [1]; ligand 1 μmol L^−1 alone,58%
same,behaviour in the calcium mobilization assay,NPSR,pure NPSR antagonist
